In brackets after ≈: the same amount, converted by molar mass. Read-outs that look alike come from different tables or passages of the source.

Here are results for 20 compounds from article PMC8482766 (Journal of Medicinal Chemistry, 2021).

Series [1] can be described thus: Thermodynamic solubility at pH 6.8. The series is classed as physicochemical.
The test system of series [2] is KINOMEscan panel (DiscoverX) of >400 wild-type human kinases. The series is classed as binding. The following applies: inhibitor concentration = 1 μM.
A short description of series [3]: In vivo pharmacokinetic study, i.v. in Sprague–Dawley rats. The following applies: 1 mg/kg i.v.
In another series the test system is P-gp (human MDR1). Put plainly: MDCK-MDR1 permeability and P-gp efflux assay. The series is classed as in vitro ADME, canine. The conditions noted are these: dog, MDCK-MDR1.
The test system of series [4] is Madin–Darby canine kidney cells transfected with the human MDR1 gene (MDCK-MDR1). Put plainly: MDCK-MDR1 permeability and P-gp efflux assay. The series is classed as in vitro ADME. The conditions noted are these: MDCK-MDR1, conclusion in words.
Series [5] deals with T1, DYRK1A (Homo sapiens, UniProt Q13627). Type of series: binding. The following applies: for LE: LE = 1.4(pIC50)/nonhydrogen atoms; for LLE: LLE = pIC50 – clog P.
The test system of series [6] is in-house panel of 48 representative kinases. Type of series: binding.
Series [7] has as its target T1, DYRK1A. Type of series: binding. The conditions noted are these: SPR, dissociation rate (off-rate).
Where [8] appears, read: relative to reference compound/matched-molecular pair 11.

As a reminder, the solubility is the concentration that dissolves in the medium under given conditions. Read a high solubility as much dissolved substance. Turning to `Cc1cccc(N(C)c2nccc(-c3cnn4ncccc34)n2)c1` [Compound 8b], the solubility in series [1] was 10 µg/mL (≈ 31.6 µM). As usually defined, the Papp A→B is how fast a substance crosses the layer from the apical side. Read a low Papp A→B as poor permeation. A word on the Papp B→A: it is the apparent permeability from the basolateral to the apical side of a cell layer. `CN(C)c1nccc(-c2cnn3ncccc23)n1` [Compound 11, N,N-Dimethyl-4-pyrazolo[1,5-b]pyridazin-3-yl-pyrimidin-2-amine]: the “S score (35)” value in series [2] stood at 0.027. Further, in series [3], the adverse effects result is reported as “no adverse effects reported”. For the same compound, in the series on P-gp (human MDR1), the Papp A→B stood at 71.4 ± 0.65 ×10⁻⁶ cm/s and the basolateral-to-apical permeability (Papp B→A) amounted to 58.7 ± 1.45 ×10⁻⁶ cm/s. Further, the P-gp substrate entry in series [4] is listed as “not a P-gp substrate”. Take `CN(c1nccc(-c2cnn3ncccc23)n1)C1CC1` [Compound 12, N-Cyclopropyl-N-methyl-4-pyrazolo[1,5-b]pyridazin-3-yl-pyrimidin-2-amine]: the “S score (35)” value in series [2] came out at 0.013. `CC(C)N(c1nccc(-c2cnn3ncccc23)n1)C1CC1` [Compound 13]: at DYRK1A [5] (matched-molecular pairs 12 and 13), the “fold reduction in DYRK1A binding affinity” value (“fold reduction” below) turned out to be 10 fold. In the case of `c1cnn2ncc(-c3ccnc(N4CCC45COC5)n3)c2c1` [Compound 22, 1-(4-Pyrazolo[1,5-b]pyridazin-3-yl-pyrimidin-2-yl)-6-oxa-1-azaspiro[3.3]heptane], in series [2], the “S score (35)” value amounted to 0.042. In the case of `CC1CCCN1c1nccc(-c2cnn3ncccc23)n1` (stereo not shown) [Compound 24, 3-[2-(2-Methylpyrrolidin-1-yl)pyrimidin-4-yl]pyrazolo[1,5-b]pyridazine], the “S score (35)” value in series [2] is listed as 0.004. Consider `C[C@H]1CCN(c2nccc(-c3cnn4ncccc34)n2)C1` [Compound 28, 3-[2-[(3S)-3-Methylpyrrolidin-1-yl]pyrimidin-4-yl]pyrazolo[1,5-b]pyridazine], for which the “S score (35)” value in series [2] is reported as 0.050.

With `C[C@@H]1CCN(c2nccc(-c3cnn4ncccc34)n2)C1` [Compound 29, 3-[2-[(3R)-3-Methylpyrrolidin-1-yl]pyrimidin-4-yl]pyrazolo[1,5-b]pyridazine], in series [2], the “S score (35)” value is on record as 0.035. As for `F[C@@H]1CCN(c2nccc(-c3cnn4ncccc34)n2)C1` [Compound 31, 3-[2-[(3R)-3-Fluoropyrrolidin-1-yl]pyrimidin-4-yl]pyrazolo[1,5-b]pyridazine], the “S score (35)” value in series [2] amounted to 0.011. For `N[C@H]1CCN(c2nccc(-c3cnn4ncccc34)n2)C1` [Compound 33, (3S)-1-(4-pyrazolo[1,5-b]pyridazin-3-yl-pyrimidin-2-yl)pyrrolidin-3-amine], the “S score (35)” value in series [2] is given as 0.027.

For `Cc1nn2ncccc2c1-c1ccnc(N(C)C)n1` [Compound 60], the “DYRK1A binding affinity (in words)” value at DYRK1A [5] (TR-FRET assay) was “no binding affinity”.

For the compound `Cc1ccc2c(-c3ccnc(N(C)C)n3)cnn2n1` [Compound 62], the “fold reduction” value on DYRK1A [5] (setting [8]) is greater than 10 fold. In the case of `Cc1cnn2ncc(-c3ccnc(N(C)C)n3)c2c1` [Compound 63, N,N-Dimethyl-4-(5-methylpyrazolo[1,5-b]pyridazin-3-yl)pyrimidin-2-amine], the “S score (35)” value in series [2] was 0.027. In the case of `Cc1ccnn2ncc(-c3ccnc(N(C)C)n3)c12` [Compound 64], the “fold reduction” value at DYRK1A [5] (setting [8]) is recorded as roughly 10 fold. The same measure, in the same setting: for `COc1ccc2c(-c3ccnc(N(C)C)n3)cnn2n1` [Compound 65] the value was greater than 10 fold; for `COc1ccnn2ncc(-c3ccnc(N(C)C)n3)c12` [Compound 66, 4-(4-Methoxypyrazolo[1,5-b]pyridazin-3-yl)-N,N-dimethyl-pyrimidin-2-amine], roughly 2 fold. With `CN(C)c1nccc(-c2c[nH]c3ncccc23)n1` [Compound 78], the “selectivity by thermal stabilization (in words)” value in series [6] is “cross-reacted with several additional kinases including the NAK kinases AAK1 and BMP2K”. Turning to `CN(C)c1ncc(F)c(-c2cnn3ncccc23)n1` [Compound 95, 5-Fluoro-N,N-dimethyl-4-pyrazolo[1,5-b]pyridazin-3-yl-pyrimidin-2-amine], the kd on DYRK1A [7] is on record as 0.06 s^–1. With `CN(C)c1cccc(-c2cnn3ncccc23)n1` [Compound 111], at DYRK1A [5], the LE is reported as 0.47 and the LLE turned out to be 3.79. For the same compound, at DYRK1A [5] (setting [8]), the “fold reduction” value is reported as “approximately 10 fold”.

On DYRK1A [5], `CN(C)c1cc(-c2cnn3ncccc23)ccn1` [Compound 113] came in with an LE of 0.48 and an LLE of 4.31. For the same compound, the “fold reduction” value at DYRK1A [5] (setting [8]) came out at 10 fold.
